Laboratory results reported in ChEMBL document CHEMBL1152685, “Structural basis of the selectivity of the beta(2)-adrenergic receptor for fluorinated catecholamines” (Bioorg Med Chem, 2009).

Experiments:
[1] = target: Beta-2 adrenergic receptor (Homo sapiens, UniProt P07550, N293F); assay: Displacement of [3H]dihydroalprenolol from human adrenergic beta2 receptor N293F mutant expressed in COS7 cell membrane
[2] = target: Beta-2 adrenergic receptor (Homo sapiens, UniProt P07550); assay: Displacement of [3H]dihydroalprenolol from human adrenergic beta2 receptor expressed in COS7 cell membrane
[3] = target: Beta-2 adrenergic receptor (Homo sapiens, UniProt P07550, N293Q); assay: Displacement of [3H]dihydroalprenolol from human adrenergic beta2 receptor N293Q mutant expressed in COS7 cell membrane
[4] = target: Beta-2 adrenergic receptor (Homo sapiens, UniProt P07550, N293A); assay: Displacement of [3H]dihydroalprenolol from human adrenergic beta2 receptor N293A mutant expressed in COS7 cell membrane
[5] = target: Beta-2 adrenergic receptor (Homo sapiens, UniProt P07550, V117C); assay: Displacement of [3H]dihydroalprenolol from human adrenergic beta2 receptor V117C mutant expressed in COS7 cell membrane
[6] = target: Beta-2 adrenergic receptor (Homo sapiens, UniProt P07550, N293L); assay: Displacement of [3H]dihydroalprenolol from human adrenergic beta2 receptor N293L mutant expressed in COS7 cell membrane
[7] = target: Beta-2 adrenergic receptor (Homo sapiens, UniProt P07550, D192G/F193V); assay: Displacement of [3H]dihydroalprenolol from human adrenergic beta2 receptor D192G, F193V mutant expressed in COS7 cell membrane
Beta-2 adrenergic receptor (Homo sapiens, UniProt P07550, D192G/F193V), sequence (P07550 whole entry D192G/F193V): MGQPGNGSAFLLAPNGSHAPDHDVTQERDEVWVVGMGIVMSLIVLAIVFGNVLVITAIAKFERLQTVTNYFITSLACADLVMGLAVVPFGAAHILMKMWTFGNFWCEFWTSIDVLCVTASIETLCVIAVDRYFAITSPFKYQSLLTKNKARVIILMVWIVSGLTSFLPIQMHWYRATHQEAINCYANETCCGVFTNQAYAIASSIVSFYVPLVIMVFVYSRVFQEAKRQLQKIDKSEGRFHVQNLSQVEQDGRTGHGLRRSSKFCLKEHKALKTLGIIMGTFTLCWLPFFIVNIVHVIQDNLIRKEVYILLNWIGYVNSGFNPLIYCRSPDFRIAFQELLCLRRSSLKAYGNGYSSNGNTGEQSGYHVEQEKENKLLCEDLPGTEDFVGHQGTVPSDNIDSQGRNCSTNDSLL

Beta-2 adrenergic receptor (Homo sapiens, UniProt P07550, N293F), sequence (P07550 whole entry N293F): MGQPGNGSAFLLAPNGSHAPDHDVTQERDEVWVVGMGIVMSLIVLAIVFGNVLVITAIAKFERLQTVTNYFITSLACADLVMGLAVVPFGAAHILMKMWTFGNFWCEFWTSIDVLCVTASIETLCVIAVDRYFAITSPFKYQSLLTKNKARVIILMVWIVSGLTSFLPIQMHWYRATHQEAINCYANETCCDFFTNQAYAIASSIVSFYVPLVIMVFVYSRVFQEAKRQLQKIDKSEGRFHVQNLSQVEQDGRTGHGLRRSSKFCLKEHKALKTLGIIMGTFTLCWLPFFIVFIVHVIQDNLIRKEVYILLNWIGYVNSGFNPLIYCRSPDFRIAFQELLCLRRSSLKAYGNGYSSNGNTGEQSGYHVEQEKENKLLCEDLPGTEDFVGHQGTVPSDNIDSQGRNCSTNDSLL
Beta-2 adrenergic receptor (Homo sapiens, UniProt P07550, N293Q), sequence (P07550 whole entry N293Q): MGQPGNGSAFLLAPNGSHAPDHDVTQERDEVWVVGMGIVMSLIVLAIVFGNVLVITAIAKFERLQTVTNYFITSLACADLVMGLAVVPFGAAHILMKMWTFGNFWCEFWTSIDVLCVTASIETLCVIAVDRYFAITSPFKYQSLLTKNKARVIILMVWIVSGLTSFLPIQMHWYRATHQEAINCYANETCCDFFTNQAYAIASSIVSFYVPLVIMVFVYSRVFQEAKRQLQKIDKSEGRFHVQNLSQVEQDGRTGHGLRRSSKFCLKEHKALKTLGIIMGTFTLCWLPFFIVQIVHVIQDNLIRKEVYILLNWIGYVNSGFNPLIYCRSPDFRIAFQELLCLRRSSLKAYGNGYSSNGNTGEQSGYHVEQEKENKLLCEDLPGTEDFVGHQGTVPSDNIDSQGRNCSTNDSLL
Beta-2 adrenergic receptor (Homo sapiens, UniProt P07550, N293A), sequence (P07550 whole entry N293A): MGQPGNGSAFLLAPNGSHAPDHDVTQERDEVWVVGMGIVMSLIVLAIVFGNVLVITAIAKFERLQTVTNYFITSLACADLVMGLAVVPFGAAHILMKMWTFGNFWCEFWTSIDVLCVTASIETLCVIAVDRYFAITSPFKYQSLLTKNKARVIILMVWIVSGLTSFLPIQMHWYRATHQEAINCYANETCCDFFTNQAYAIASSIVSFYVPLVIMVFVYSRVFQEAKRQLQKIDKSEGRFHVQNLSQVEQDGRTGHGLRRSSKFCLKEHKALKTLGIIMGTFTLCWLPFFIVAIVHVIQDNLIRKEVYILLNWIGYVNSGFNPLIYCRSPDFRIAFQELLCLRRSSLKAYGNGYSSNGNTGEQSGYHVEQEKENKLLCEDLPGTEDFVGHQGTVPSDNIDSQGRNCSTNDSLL
Beta-2 adrenergic receptor (Homo sapiens, UniProt P07550, V117C), sequence (P07550 whole entry V117C): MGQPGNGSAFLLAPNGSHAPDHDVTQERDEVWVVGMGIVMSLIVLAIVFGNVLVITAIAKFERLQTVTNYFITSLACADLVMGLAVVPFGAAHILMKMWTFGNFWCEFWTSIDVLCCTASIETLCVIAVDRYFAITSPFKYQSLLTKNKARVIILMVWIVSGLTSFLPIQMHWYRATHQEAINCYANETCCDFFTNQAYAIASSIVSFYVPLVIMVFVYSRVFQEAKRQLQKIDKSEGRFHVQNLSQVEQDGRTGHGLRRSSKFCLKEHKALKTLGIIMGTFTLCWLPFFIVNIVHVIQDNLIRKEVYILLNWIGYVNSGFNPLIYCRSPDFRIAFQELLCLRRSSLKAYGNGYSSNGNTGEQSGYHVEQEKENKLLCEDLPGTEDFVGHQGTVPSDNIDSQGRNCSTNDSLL
Beta-2 adrenergic receptor (Homo sapiens, UniProt P07550), sequence (P07550 whole entry): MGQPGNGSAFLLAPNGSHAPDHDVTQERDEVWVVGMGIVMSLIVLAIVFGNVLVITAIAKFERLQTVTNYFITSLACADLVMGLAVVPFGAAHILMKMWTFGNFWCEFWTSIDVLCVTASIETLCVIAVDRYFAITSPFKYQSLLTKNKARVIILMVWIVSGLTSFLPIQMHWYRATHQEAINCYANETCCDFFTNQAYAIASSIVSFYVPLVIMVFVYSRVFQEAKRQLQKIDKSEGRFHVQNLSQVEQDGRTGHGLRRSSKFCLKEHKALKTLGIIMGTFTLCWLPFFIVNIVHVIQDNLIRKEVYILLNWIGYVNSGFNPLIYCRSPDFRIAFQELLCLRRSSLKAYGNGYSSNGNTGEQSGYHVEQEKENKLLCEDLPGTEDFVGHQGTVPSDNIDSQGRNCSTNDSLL
Beta-2 adrenergic receptor (Homo sapiens, UniProt P07550, N293L), sequence (P07550 whole entry N293L): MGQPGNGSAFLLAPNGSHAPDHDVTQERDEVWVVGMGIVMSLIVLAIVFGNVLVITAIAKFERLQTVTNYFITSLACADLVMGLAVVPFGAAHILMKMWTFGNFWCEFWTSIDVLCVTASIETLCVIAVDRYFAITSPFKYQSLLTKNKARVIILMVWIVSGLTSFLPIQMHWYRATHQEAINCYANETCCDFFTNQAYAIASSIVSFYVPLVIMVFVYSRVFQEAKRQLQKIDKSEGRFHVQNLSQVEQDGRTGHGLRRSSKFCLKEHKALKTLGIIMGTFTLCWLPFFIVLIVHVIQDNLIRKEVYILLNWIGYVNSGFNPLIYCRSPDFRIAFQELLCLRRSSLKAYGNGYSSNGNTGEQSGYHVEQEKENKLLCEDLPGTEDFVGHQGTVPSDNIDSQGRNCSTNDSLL

SMILES | Ki [1] [µM] | Ki [2] [µM] | Ki [3] [µM] | Ki [4] [µM] | Ki [5] [µM] | Ki [6] [µM] | Ki [7] [µM]
NC[C@H](O)c1cc(O)c(O)cc1F | 216 | 15.8 | 68.9 | 319 | 39.8 | 117 | 19.5
NC[C@H](O)c1ccc(O)c(O)c1F | 70.1 | 1160 | 3330 | 5450 | > 2000 | 188 | > 2000
